# Results published in patent US5026711A, “4-amino quinolines and naphthyridines and their use as medicines” (priority 1988, dated 1991).
# Like-named read-outs stand apart in the source and are kept apart here.
# Assays:
# [1] = test system: receptors of the peripheral type; assay: in vivo inhibition of [3H] PK11195 binding to peripheral type receptors in organs of the mouse
# Method: The assays were carried out in the mouse by using the binder [^3 H]
# The products to be tested are administered orally in suspension in an aqueous solution of carboxymethylcellulose (1% wt/v) to groups of 4 mice 35 mn before the intravenous injection of [^3 H] […] 5 mn after the injection the animals are sacrificed by decapitation and the different organs are removed and ground in 10 ml Tris-HCl buffer (50 mM; pH=7.4) to give homogenates.
# The control groups only received the carboxymethylcellulose solution and the injection of [^3 H]
# A determination was made for each organ by means of scintigraphy of:
# 1--the amount of radioactive binder present in an organ by measuring the radioactivity of an aliquot of the homogenate.
# 2--the amount of radioactive binder bound to the membrane tissues of an organ by measuring the radioactivity bound on a fiber glass filter after filtration of another aliquot of the homogenate.
# 3--the amount of radioactive binder bound non-specifically to the membrane tissues by incubating a control homogenate with an excess of RO5-4864, a known binder, followed by binding of the membranes to a filter and measurement of the radioactivity remaining on the membranes.
# The inhibition of specific binding, recorded as SB, is equal to the difference between the radioactivity measurements 2 and 3 divided by measurement 1.
# The percentages of inhibition of the binding in different organs determined for compounds of the invention and the reference substances are shown in table VI; they are given by the formula: [formula]
# [2] = molecular target: T1, benzodiazepine receptors of the peripheral type (Felis catus, UniProt A0ABI7ZQW3); assay: inhibition of specific binding of [3H] PK11195 to peripheral type benzodiazepine receptors, membrane proteins of cat brain
# T1 sequence (A0ABI7ZQW3 15-183): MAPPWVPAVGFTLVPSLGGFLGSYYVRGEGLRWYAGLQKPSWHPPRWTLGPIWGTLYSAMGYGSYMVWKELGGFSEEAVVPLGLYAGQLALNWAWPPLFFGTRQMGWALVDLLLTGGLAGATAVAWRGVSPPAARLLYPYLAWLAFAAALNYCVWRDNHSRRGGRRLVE
# Method: The method is similar to that described by J. Benavides et al. in Brain Res. Bull. 13 p. 69-77 (1984) and references cited therein.
# Suspensions of membrane proteins of cat brain were prepared as described by J. Benavides.
# The assays of inhibition of the binding of [^3 H]
# Non specific binding was defined as the amount of [^3 H]
# [3] = molecular target: central benzodiazepine receptors; assay: inhibition of specific binding of [3H] flunitrazepam to central benzodiazepine receptors, rat brain; details: 4° C., pH 7.4
# Method: (b) determination of the concentration of the product under study inhibiting 50% of the specific binding of flunitrazepam to the central receptors.
# The brains of rats were removed after decapitation and ground, then placed in suspension in an aqueous solution of sucrose (0.32M). The mixture is centrifuged and the pellet is resuspended to give a homogenous suspension in a TRIS-HCl buffered solution (50 mM; pH=7.4). Aliquots of this suspension are incubated at 4° C. after addition of [^3 H] flunitrazepam, alone or with increasing amounts of the compound to be tested.
# [4] = oral acute toxicity in the mouse (LD50); assay type: in vivo; details: for LD50: in vivo, oral route
# Method: The compounds of Examples 3, 67, 90, 107 and 114 are atoxic at the dose of 500 mg/kg in the mouse.
# [5] = [3H] PK11195 0.5 nM, cat brain membranes, 4° C., 2h30; read-out: IC50 (peripheral)
SMILES,"IC50 [2, 5] [µM]",IC50 [3] [µM],further results
CCN(C(=O)CNc1c(C(=O)c2ccccc2)cnc2cccnc12)c1ccc(Cl)cc1 [compound 26858],0.00077,> 10,"% Inhibition, brain ([1]; 25 mg/kg oral): 95%; % Inhibition, spleen ([1]; 25 mg/kg oral): 84%"
CN(C(=O)CNc1c(C(=O)c2ccccc2)cnc2cccnc12)c1ccc(Cl)cc1Cl [SR 26972],,,atoxic at the dose of 500 mg/kg [4]: atoxic
"CN1C(=O)CN=C(c2ccc(Cl)cc2)c2cc(Cl)ccc21 [R05-4864, 7-chloro 1,3-dihydro 1-methyl 5-(4-chlorophenyl) 1,4-2H-benzodiazepine 2-one, reference compound]",,,"% Inhibition, brain ([1]; 15 mg/kg oral): 74%; % Inhibition, heart ([1]; 15 mg/kg oral): 27%; % Inhibition, kidney ([1]; 15 mg/kg oral): 73%; % Inhibition, spleen ([1]; 15 mg/kg oral): 11%; % Inhibition, thymus ([1]; 15 mg/kg oral): 28%; IC50 ([2]; read-out: IC50 (peripheral); [3H] PK11195 0.5 nM, cat brain membranes, 4° C., 2h30): 0.044 µM; IC50 (central) [3]: inactive"
CCCN(CCC)C(=O)C(C)Nc1c(C(=O)OCC)cnc2cc(Cl)ccc12 (stereo not drawn) [compound 26310],0.001,> 20,"% Inhibition, brain ([1]; 25 mg/kg oral): 76%; % Inhibition, heart ([1]; 25 mg/kg oral): 39%; % Inhibition, kidney ([1]; 25 mg/kg oral): 32%; % Inhibition, spleen ([1]; 25 mg/kg oral): 52%; % Inhibition, thymus ([1]; 25 mg/kg oral): 31%"
CN(C(=O)CNc1c(C(=O)c2ccccc2)cnc2cc(Cl)ccc12)c1ccc(Cl)cc1 [compound 26412],0.0004,> 10,"% Inhibition, brain ([1]; 25 mg/kg oral): 79%; % Inhibition, spleen ([1]; 25 mg/kg oral): 62%"
COc1ccc(N(C)C(=O)CNc2c(C(=O)c3ccccc3)cnc3cccnc23)cc1 [compound 27161],0.0023,> 10,"% Inhibition, brain ([1]; 25 mg/kg oral): 92%; % Inhibition, spleen ([1]; 25 mg/kg oral): 78%"
CC(Nc1c(C(=O)c2ccccc2)cnc2cccnc12)C(=O)N(C)c1ccc(Cl)cc1 (stereo not drawn) [SR 26455],,,atoxic at the dose of 500 mg/kg [4]: atoxic
CN(C(=O)CCNc1c(C(=O)c2ccccc2)cnc2cccnc12)c1ccc(Cl)cc1 [SR 26731],,,atoxic at the dose of 500 mg/kg [4]: atoxic
COc1ccc(C(=O)c2cnc3cccnc3c2NCC(=O)N(C)c2ccc(Cl)cc2)cc1 [compound 27153],0.00162,47.9,"% Inhibition, brain ([1]; 25 mg/kg oral): 87%; % Inhibition, spleen ([1]; 25 mg/kg oral): 52%"
CN(C(=O)CNc1c(C(=O)c2ccccc2)cnc2cc(Br)ccc12)c1ccc(Cl)cc1 [compound 26876],0.0005,> 10,"% Inhibition, brain ([1]; 25 mg/kg oral): 84%; % Inhibition, spleen ([1]; 25 mg/kg oral): 64%"
CN(C(=O)CNc1c(C(=O)c2ccccc2)cnc2cccnc12)c1ccc(Cl)cc1 [compound 26276],0.0003,13.4,"% Inhibition, brain ([1]; 8 mg/kg oral): 78%; % Inhibition, heart ([1]; 8 mg/kg oral): 30%; % Inhibition, kidney ([1]; 8 mg/kg oral): 69%; % Inhibition, spleen ([1]; 8 mg/kg oral): 37%; % Inhibition, thymus ([1]; 8 mg/kg oral): 34%"
CN(C(=O)CNc1c(C(=O)c2ccccc2)cnc2cc(Cl)cnc12)c1ccc(Cl)cc1 [compound 26830],0.00013,> 10,"% Inhibition, brain ([1]; 25 mg/kg oral): 64%; % Inhibition, spleen ([1]; 25 mg/kg oral): 26%"
CN(C(=O)CNc1c(C(=O)c2ccccc2)cnc2cccnc12)c1ccc(Cl)cc1 [SR 26276],,,LD50 [4]: > 1800 mg/kg
COc1ccc(N(C)C(=O)CNc2c(C(=O)c3ccccc3)cnc3cc(Br)ccc23)cc1 [SR 27195],,,atoxic at the dose of 500 mg/kg [4]: atoxic
COc1ccc(N(C)C(=O)CNc2c(C(=O)c3ccccc3)cnc3cc(Cl)ccc23)cc1 [compound 26846],0.0029,> 10,"% Inhibition, brain ([1]; 25 mg/kg oral): 91%; % Inhibition, spleen ([1]; 25 mg/kg oral): 80%"
CN(CC(=O)N(C)c1ccc(Cl)cc1)c1c(C(=O)c2ccccc2)cnc2cccnc12 [compound 26710],0.0032,> 10,
"CNC1=Nc2ccc(Cl)cc2C(c2ccccc2)=[N+]([O-])C1 [CHLORDIAZEPOXIDE, reference compound]",,0.654,"IC50 (peripheral) ([2]; [3H] PK11195 0.5 nM, cat brain membranes, 4° C., 2h30): inactive"
CCCN(CCC)C(=O)C(C)Nc1c(C(=O)OCC)cnc2ccc(Cl)cc12 (stereo not drawn) [SR 26058],,,atoxic at the dose of 500 mg/kg [4]: atoxic

SMILES,"IC50 [2, 5] [µM]",IC50 [3] [µM],further results
CCCN(CCC)C(=O)CNc1c(C(=O)c2ccccc2)cnc2ccc(Cl)nc12 [compound 26286],0.006,5.48,
CN(C(=O)CNc1c(C(=O)c2ccccc2)cnc2cccnc12)c1ccc(Cl)c(Cl)c1 [compound 26708],0.0028,> 10,
CN(C(=O)CNc1c(C(=O)c2ccccc2)cnc2ccc(Cl)cc12)c1ccc(Cl)cc1 [compound 26620],0.0028,> 10,
CCCN(CCC)C(=O)C(C)Nc1c(C(=O)OCC)cnc2cccc(Cl)c12 (stereo not drawn) [compound 26399],0.007,12.7,
"CCC(C)N(C)C(=O)c1cc2ccccc2c(-c2ccccc2Cl)n1 (stereo not drawn) [PK11195, 1-(2-chlorophenyl) 3-(N-methyl N-methylpropyl) carbamoyl isoquinoline, reference compound]",0.0013,,"% Inhibition, brain ([1]; 15 mg/kg oral): 71%; % Inhibition, heart ([1]; 15 mg/kg oral): 27%; % Inhibition, kidney ([1]; 15 mg/kg oral): 54%; % Inhibition, spleen ([1]; 15 mg/kg oral): 29%; % Inhibition, thymus ([1]; 15 mg/kg oral): 30%"
CN(C(=O)CNc1c(C(=O)c2ccccc2)cnc2cc(C(F)(F)F)ccc12)c1ccc(Cl)cc1 [compound 26794],0.011,> 10,
CCCN(CCC)C(=O)C(C)Nc1c(C(=O)OCC)cnc2cc3c(cc12)OCO3 (racemic) [compound 26552],0.031,12.4,
CCCN(CCC)C(=O)CNc1c(C(=O)c2ccccc2)cnc2cc(Cl)ccc12 [compound 26290],0.01,> 10,
CCCN(CCC)C(=O)CNc1c(C(=O)c2ccccc2)cnc2c(Cl)cccc12 [compound 26307],0.175,> 10,
CCCN(C(=O)CNc1c(C(=O)c2ccccc2)cnc2cc(Cl)ccc12)c1ccc(Cl)cc1 [compound 26397],0.004,> 10,
"CCCN(CCC)C(=O)C(C)Nc1c(C(=O)OCC)cnc2cc(C(F)(F)F)ccc12 (stereo not drawn) [SR 26241, ethyl 4-[1-(N,N-dipropylcarbamoyl)ethylamino] 7-trifluoromethyl quinoline 3-carboxylate]",,,LD50 [4]: 1100 mg/kg
CN(C(=O)CNc1c(C(=O)c2ccccc2)cnc2cc(F)ccc12)c1ccc(Cl)cc1 [compound 26706],0.004,> 10,
CCCN(CCC)C(=O)CNc1c(C(=O)c2ccccc2)cnc2ccc(Cl)cc12 [compound 26199],0.013,1.64,
CN(C(=O)CNc1c(C(=O)c2ccccc2)cnc2cc(Cl)ccc12)c1ccc(C(F)(F)F)cc1 [compound 26778],0.027,> 10,
CCCCOC(=O)c1cnc2cc(Cl)ccc2c1NC(C)C(=O)N(CCC)CCC (stereo not drawn) [compound 26449],0.001,> 20,
CN(C(=O)CNc1c(C(=O)c2ccccc2)cnc2cccnc12)c1ccccc1Cl [compound 26651],0.00093,8.49,
CCCN(CCC)C(=O)C(C)Nc1c(C(=O)OCC)cnc2ccc(C3CCCCC3)cc12 (stereo not drawn) [compound 26487],0.039,> 20,
